A word on the melting point: it is the temperature, or range, at which the solid turns liquid. A word on the IC50: it is the concentration at which inhibition is half-maximal.

The results in this text go back to patent publication US20040186288A1, “3,5-Diamino-1,2,4-triazoles as kinase inhibitors” (priority 2001, published 2004).

The target in series [1] is Tie2 (Homo sapiens, UniProt Q02763). Nature of the series: Tie2 kinase assay. The format is biochemical. The settings on record: poly-(Glu4Tyr) substrate, 33P-ATP, 10 minutes at room temperature; read-out: Tie 2 IC50. The procedure:
(§1) KDR (VEGFR II) and Tie2 Assay
(§2) In a microtiter plate (without protein binding!) that tapers to a point, the solutions are mixed in the following sequence:
(§3) 10 μl of substrate mixture
(§4) 10 μl of inhibitor dilution
(§5) 10 μl of enzyme solution.
(§6) It is mixed thoroughly and incubated for 10 minutes at room temperature. Then, 10 μl of the stop solution is added, mixed, and 10 μl of the solution is transferred to a P 81, phosphocellulose filter. It is washed several times in 0.1 M phosphoric acid. The filter paper is dried, coated with Meltilex and measured in a microbeta. The IC50 values are determined from the inhibitor concentration that is necessary to inhibit the phosphate incorporation to 50% of the uninhibited incorporation after removal of the blank reading (EDTA-stopped reaction).
(§7) Substrate solvent: 10 mmol of DTT, 10 mmol of MnCl2, 100 mmol of MgCl2 (DTT slightly oxidized, frozen at −80° C.). Before the test, 1:10 diluted with H2O.
(§8) Enzyme solvent: 120 mmol of TrisCl, pH 7.5; 10 μmol of Na3VO4.
(§9) 10 μl of volume of ATP stock solution A+25 μCi γ-^33P-ATP (about 2.5 μl of stock solution B)+30 μl of poly-(Glu4Tyr) stock solution C+1.21 ml of substrate solvent
(§10) Substances corresponding to the dilutions, 3% DMSO in substrate solvent as a control
(§11) 11.25 μg of the enzyme stock solution (KDR and FLT-1 kinase and Tie2) are diluted at of enzyme solvent (other amounts in the case of other activity!).
(§12) Stop Solution: […] of EDTA, pH 7.0
(§13) Washing Solution: 0.5% phosphoric acid

The target of series [2] is KDR (VEGFR II) (Homo sapiens, UniProt P35968). In words: KDR (VEGFR II) kinase assay. In kind it is biochemical. The settings on record: poly-(Glu4Tyr) substrate, 33P-ATP, 10 minutes at room temperature. The procedure:
as §1, §2, §3, §4, §5, §6, §7, §8, §9, §10, §11, §12, §13

Series [3] has as its target T1, CDK2/CycE (Homo sapiens, UniProt P24941).
T1 construct: GST; purchased Dr. Dieter Marme, Klinik für Tumorbiologie, Freiburg (obtained from an outside laboratory, not a commercial vendor); host or cells: baculovirus-infected insect cells (Sf9)
Nature of the series: CDK2/CycE kinase assay. As to conditions: histone IIIS substrate, 0.5 μm ATP, 15 minutes at 22° C. The format is biochemical. The procedure: Recombinant CDK2- and CycE-GST-fusion proteins, purified from baculovirus-infected insect cells (Sf9), were obtained by Dr. Dieter Marme, Klinik für Tumorbiologie [Clinic for Tumor Biology], Freiburg. Histone IIIS, which was used as a kinase substrate, was purchased by the Sigma Company.
CDK2/CycE (50 ng/measuring point) was incubated for 15 minutes at 22° C. in the presence of various concentrations of test substances (0 μm, as well as within the range of 0.01-100 μm) in assay buffer [50 mmol of tris/HCl pH 8.0, 10 mmol of MgCl2, 0.1 mmol of Na ortho-vanadate, 1.0 mmol of dithiothreitol, 0.5 μm of adenosine triphosphate (ATP), 10 μg/measuring point of histone IIIS, 0.2 μCi/measuring point of ^33P-gamma ATP, 0.05% NP40, 12.5% dimethyl sulfoxide]. The reaction was stopped by adding EDTA solution (250 mmol, pH 8.0, 14 μl/measuring point).
From each reaction batch, 10 μl was applied to P30 filter strips (Wallac Company), and non-incorporated ^33P-ATP was removed by subjecting the filter strips to three washing cycles for 10 minutes each in 0.5% phosphoric acid. After the filter strips were dried for one hour at 70° C., the filter strips were covered with scintillator strips (MeltiLex™ A, Wallac Company) and baked for one hour at 90° C. The amount of incorporated ^33P (substrate phosphorylation) was determined by scintillation measurement in a gamma-radiation measuring device (Wallac).

Series [4] relates to human MCF7 tumor cells. Nature of the series: Proliferation assay (crystal violet). As to conditions: 96 h, 4 days incubation, read-out: MCF-7 IC50. In kind it is cell-based. The procedure: Cultivated human MCF7 tumor cells were flattened out at a density of 5000 cells/measuring point in a 96-well multititer plate in 200 μl of the corresponding growth medium. After 24 hours, the cells of one plate (zero-point plate) were colored with crystal violet (see below), while the medium of the other plates was replaced by fresh culture medium (200 μl), to which the test substances were added in various concentrations (0 μm, as well as in the range of 0.01-30 μm; the final concentration of the solvent dimethyl sulfoxide was 0.5%). The cells were incubated for 4 days in the presence of test substances. The cell proliferation was determined by coloring the cells with crystal violet: the cells were fixed by adding 20 μl/measuring point of an 11% glutaric aldehyde solution for 15 minutes at room temperature. After three washing cycles of the fixed cells with water, the plates were dried at room temperature. The cells were colored by adding 100 μl/measuring point of a 0.1% crystal violet solution (the pH was set at 3 by adding acetic acid). After three washing cycles of the colored cells with water, the plates were dried at room temperature. The dye was dissolved by adding 100 μl/measuring point of a 10% acetic acid solution. The extinction was determined by photometry at a wavelength of 595 nm. The change of cell growth, in percent, was calculated by standardization of the measured values to the extinction values of the zero-point plate (=0%) and the extinction of the untreated (0 μm) cells (=100%).

Sequence of Tie2 (Q02763 23-1124, species assumed): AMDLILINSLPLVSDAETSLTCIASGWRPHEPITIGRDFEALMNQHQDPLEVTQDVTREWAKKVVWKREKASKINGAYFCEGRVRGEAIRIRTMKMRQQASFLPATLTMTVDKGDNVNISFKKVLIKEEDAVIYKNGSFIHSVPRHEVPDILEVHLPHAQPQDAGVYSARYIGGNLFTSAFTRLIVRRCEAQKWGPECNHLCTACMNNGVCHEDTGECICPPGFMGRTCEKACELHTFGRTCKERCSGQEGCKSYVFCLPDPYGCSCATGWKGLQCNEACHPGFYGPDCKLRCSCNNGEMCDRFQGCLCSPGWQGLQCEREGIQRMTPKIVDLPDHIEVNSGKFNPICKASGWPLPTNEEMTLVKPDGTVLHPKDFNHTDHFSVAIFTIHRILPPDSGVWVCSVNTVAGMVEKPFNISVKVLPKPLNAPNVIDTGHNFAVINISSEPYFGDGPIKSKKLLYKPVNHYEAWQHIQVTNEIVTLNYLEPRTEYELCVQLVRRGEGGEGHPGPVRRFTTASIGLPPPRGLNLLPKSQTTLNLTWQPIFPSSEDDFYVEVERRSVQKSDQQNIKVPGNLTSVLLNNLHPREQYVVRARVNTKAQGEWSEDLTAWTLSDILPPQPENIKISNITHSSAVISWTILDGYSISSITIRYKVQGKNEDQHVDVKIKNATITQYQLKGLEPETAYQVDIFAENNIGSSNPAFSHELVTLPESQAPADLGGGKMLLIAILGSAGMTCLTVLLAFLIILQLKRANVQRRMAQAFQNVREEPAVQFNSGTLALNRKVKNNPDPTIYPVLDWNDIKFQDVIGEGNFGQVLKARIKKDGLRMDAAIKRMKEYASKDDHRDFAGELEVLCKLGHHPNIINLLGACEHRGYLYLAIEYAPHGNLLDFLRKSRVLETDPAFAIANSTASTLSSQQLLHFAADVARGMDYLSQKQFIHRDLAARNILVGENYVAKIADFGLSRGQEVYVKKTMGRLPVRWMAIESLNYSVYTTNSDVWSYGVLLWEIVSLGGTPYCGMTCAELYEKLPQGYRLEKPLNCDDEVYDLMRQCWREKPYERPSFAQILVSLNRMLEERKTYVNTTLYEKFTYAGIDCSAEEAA
Sequence of KDR (VEGFR II) (P35968 20-1356, species assumed): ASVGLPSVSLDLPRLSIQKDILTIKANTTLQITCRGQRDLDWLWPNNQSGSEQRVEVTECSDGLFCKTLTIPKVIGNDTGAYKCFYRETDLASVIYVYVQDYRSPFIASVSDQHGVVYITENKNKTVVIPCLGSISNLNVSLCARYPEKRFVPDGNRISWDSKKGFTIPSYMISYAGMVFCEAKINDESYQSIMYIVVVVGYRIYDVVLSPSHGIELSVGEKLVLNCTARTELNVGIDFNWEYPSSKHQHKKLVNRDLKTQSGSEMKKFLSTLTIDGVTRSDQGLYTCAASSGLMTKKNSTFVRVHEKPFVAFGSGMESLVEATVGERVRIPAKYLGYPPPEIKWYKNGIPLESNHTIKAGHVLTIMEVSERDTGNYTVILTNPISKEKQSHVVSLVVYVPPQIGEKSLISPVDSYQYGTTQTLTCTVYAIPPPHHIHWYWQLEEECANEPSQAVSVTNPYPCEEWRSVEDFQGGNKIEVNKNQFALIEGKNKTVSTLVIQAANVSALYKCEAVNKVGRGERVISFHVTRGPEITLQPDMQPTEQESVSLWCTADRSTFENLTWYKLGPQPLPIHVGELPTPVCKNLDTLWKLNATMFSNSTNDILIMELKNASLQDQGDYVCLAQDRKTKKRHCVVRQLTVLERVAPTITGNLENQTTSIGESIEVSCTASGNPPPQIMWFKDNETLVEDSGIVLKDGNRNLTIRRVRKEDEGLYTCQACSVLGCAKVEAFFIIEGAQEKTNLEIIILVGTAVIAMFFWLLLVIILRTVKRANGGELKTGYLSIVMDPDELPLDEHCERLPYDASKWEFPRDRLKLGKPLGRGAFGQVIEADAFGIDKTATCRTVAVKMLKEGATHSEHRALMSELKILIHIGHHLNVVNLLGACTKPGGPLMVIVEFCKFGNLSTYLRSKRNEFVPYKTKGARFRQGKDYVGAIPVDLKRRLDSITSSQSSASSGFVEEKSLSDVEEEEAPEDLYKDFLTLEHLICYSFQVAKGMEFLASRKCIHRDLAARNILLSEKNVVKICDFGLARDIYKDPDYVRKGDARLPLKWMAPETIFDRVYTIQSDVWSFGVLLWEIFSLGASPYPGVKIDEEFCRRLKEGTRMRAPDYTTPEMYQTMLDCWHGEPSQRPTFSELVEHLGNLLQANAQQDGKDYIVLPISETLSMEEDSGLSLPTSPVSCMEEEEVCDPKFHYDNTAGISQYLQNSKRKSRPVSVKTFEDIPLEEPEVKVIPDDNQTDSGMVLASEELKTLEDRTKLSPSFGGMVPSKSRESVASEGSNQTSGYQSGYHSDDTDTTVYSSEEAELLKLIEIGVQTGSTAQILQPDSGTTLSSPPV

In the case of `COc1ccc(Nc2nc(N)n(-c3ccccn3)n2)c(OC)n1` [Example 14], the melting point was 159 °C.
Regarding `Nc1nc(Nc2cnc3ncccc3c2)nn1-c1ccccn1` [Example 17], the melting point worked out at 253 °C. For the same molecule, the IC50 in series [1] was > 1000 nM. In addition, it took 30 nM to reach half-maximal inhibition in series [2] (IC50). Further, it took 500 nM to reach half-maximal inhibition in series [3] (IC50). Moreover, in series [4], the IC50 worked out at 1500 nM.
`Nc1nc(Nc2cccnc2)nn1-c1ccc2ccccc2c1` [Example 5] returned a melting point of 247 °C. Also, the half-maximal inhibitory concentration (IC50) in series [1] was > 1000 nM. In addition, it took 10 nM to reach half-maximal inhibition in series [2] (IC50). In series [3], this molecule gave an IC50 of 400 nM. Further, the IC50 in series [4] came to 2000 nM.
In turn, `Nc1nc(Nc2cccnc2)nn1-c1ccc(C(F)(F)F)cn1` [Example 6] returned a melting point of 254 °C. In series [1], the IC50 is > 1000 nM. The molecule also registered an IC50 in series [2] of 200 nM. The molecule also gave an IC50 in series [3] of 2000 nM. For the same molecule, the IC50 in series [4] is 4000 nM.
As to `Nc1nc(Nc2nccc3ccccc23)nn1-c1ccccn1` [Example 18], the melting point came to 278 °C.
Consider `Nc1nc(Nc2cccnc2)nn1-c1ccccn1` [Example 1, 5-Amino-1-(2-pyridinyl)-3-(3-pyridinylamino)-1H-1,2,4-triazole], for which, in series [4], the IC50 stood at 1500 nM.
With `Nc1nc(Nc2cnc3ccccc3c2)nn1-c1ccc2ccccc2n1` [Example 12], the melting point was 249 °C.
Molecule `COc1ccc(Nc2nc(N)n(-c3ccccn3)n2)cn1` [Example 9] returned a melting point of 237 °C. Besides, the IC50 in series [1] came out at 500 nM. In series [2], this molecule displayed an IC50 of 50 nM. In series [3], this molecule came in with an IC50 of 1000 nM. In addition, the IC50 in series [4] was > 10000 nM.
The like results for `Nc1nc(Nc2cnc3ccccc3c2)nn1-c1ccccn1` [Example 10] were, in that order, 225 °C, 500 nM, 20 nM, 800 nM and 4000 nM.
The molecule `Nc1nc(Nc2cccnc2)nn1-c1ccccc1` [Example 8] displayed a melting point of 223 °C.
On the same count and under the same terms, for `COc1ncccc1Nc1nc(N)n(-c2ccccn2)n1` [Example 11] the value was 169 °C.
On the same count and under the same terms, for `Nc1nc(Nc2cnccc2Cl)nn1-c1ccccn1` [Example 20] the value was 193 °C.
Take `Nc1nc(Nc2cncc(Br)c2)nn1-c1ccccn1` [Example 15]: the melting point came out at 285 °C. For the same molecule, the IC50 in series [1] is 500 nM. Further, the IC50 in series [2] worked out at 40 nM. The molecule also yielded an IC50 in series [3] of 300 nM. Moreover, in series [4], the IC50 turned out to be 1100 nM.
The like results for `Cc1cc(C(F)(F)F)cc(-n2nc(Nc3cccnc3)nc2N)n1` [Example 3] were, in that order, 212 °C, > 1000 nM, 10 nM, 2000 nM and > 10000 nM.
`Nc1nc(Nc2cccnc2)nn1-c1cccnc1` [Example 7] registered a melting point of 234 °C.
Molecule `Nc1nc(Nc2cncc3ccccc23)nn1-c1ccccn1` [Example 16] showed a melting point of 287 °C. The molecule further had an IC50 in series [2] of 20 nM. The molecule also registered an IC50 in series [3] of 2800 nM.
In turn, `Nc1nc(Nc2cccnc2)nn1-c1nccc2ccccc12` [Example 13] displayed a melting point of 246 °C. In addition, the IC50 in series [1] was determined as 500 nM. Besides, the IC50 in series [2] came out at 20 nM. Besides, in series [3], the IC50 was determined as 200 nM. Also, the IC50 in series [4] was 700 nM.
The molecule `Nc1nc(Nc2ccc3ccccc3n2)nn1-c1ccccn1` [Example 19] yielded a melting point of 326 °C.
On the same count and under the same terms, for `Cc1ccc(Nc2nc(N)n(-c3ccccn3)n2)c(C)n1` [Example 21] the value was 191 °C.
`Nc1nc(Nc2cccnc2)nn1-c1ncccc1C(F)(F)F` [Example 4] returned a melting point of 255 °C. Moreover, the IC50 in series [1] is > 1000 nM. This molecule returned an IC50 in series [2] of 30 nM. In series [3], this molecule returned an IC50 of 6000 nM. Further, in series [4], the IC50 stood at 6000 nM.
